Test results: US20250376480A1, “COMPOUND FOR LOSING WEIGHT AND IMPROVING GUT MICROBIOTA COMPOSITION AND COMPOSITION THEREOF” (SUNWAY BIOTECH CO., LTD., priority 2024, published 2025)
Marks after values point to notes of the source that are not given here.

Experiments:
Format in all cases: in vivo, rat
[1] = system: obesity rats induced by high-fat feed; assay: Body weight change of obesity rats induced by high-fat feed
Method: (§1) Forty male rats of 8-week-old Sprague-Dawley (SD) strain were purchased from BioLASCO (Taipei, Taiwan) for the experiment. The growing environment was one with constant indoor temperature (25±1° C.), relative humidity of 60%, and 12 hours of cyclic light (light time from 8:00 to 20:00). The rats were acclimatized for four days before the formal experiment, then reared in 5 groups of 8 rats each for 8 weeks and were fed in an ad libitum feeding manner, and their body weight, food intake and water intake were measured at regular intervals during the experimental period.
The feeding dosage was calculated according to the method of “Estimating the maximum safe starting dose in initial clinical trials for therapeutics in adult healthy volunteers” published by the U.S. Food and Drug Administration in 2005. Provided that an adult of 60 kg was used as the base, the principle of dosage conversion is 6.2 times of the recommended daily intake of mg/kg bw/day for human as the recommended daily intake of mg/kg bw/day for rat, and the rat group is configured and fed with the dosage as shown in Table 1. The formulae are as follows: Dose intake per kilogram of body weight in rats=Recommended intake in humans÷Body weight 60 kg×6.2, and thus the daily dose intake per kilogram of body weight in rats can be calculated.
(§2) The experimental rats were divided into groups, and the obesity rats were induced by high-fat feed as follows (Please refer to Table 1). • i. NOR Group: Normal animal group. • ii. HF Group: High-fat control group including obesity rats induced by high-fat feed. • iii. RL Group: Obesity rats induced by high-fat feed and tube-fed daily with red yeast rice powder, equivalent to 0.5 g of red yeast rice containing 1.5 mg of Monascinol (compound having the structure of Formula (I)) per day consumed by an adult of 60 kg. • iv. RH Group: Obesity rats induced by high-fat feed and tube-fed red yeast rice powder daily, equivalent to 2 g of red yeast rice containing 6 mg of Monascinol (compound having the structure of Formula (I)) per day consumed by an adult of 60 kg. • V. Msol Group: Obesity rats induced by high-fat feed and tube-fed Monascinol (compound having the structure of Formula (I)) powder daily, equivalent to 3 mg of Monascinol (compound having the structure of Formula (I)) powder per day consumed by an adult of 60 kg.
(4) Test Substance Feeding Method: The test substance was administered orally by tube feeding, and the concentration of the test substance was adjusted by using reverse osmosis water. 2.0 mL of sterile plastic syringes with stainless steel feeding pins were used to feed each group of test substance daily. […]
The body weight of rats was measured weekly and the changes in body weight of each group were compared at the end of the experiment.

[2] = system: obesity rats induced by high-fat feed; assay: Liver weight and liver/body weight of high-fat diet rats
Method: as §1, §2
(§3) (4) Test Substance Feeding Method: The test substance was administered orally by tube feeding, and the concentration of the test substance was adjusted by using reverse osmosis water. 2.0 mL of sterile plastic syringes with stainless steel feeding pins were used to feed each group of test substance daily. Stainless steel feeding needles were soaked in 70% alcohol solution and rinsed with sterile distilled water several times before use. Each group of test animals was administered the test substance once a day for 8 weeks.
(§4) The animals fasted for 16 hours before sacrifice, and carbon dioxide was used for asphyxiation during sacrifice. After making sure that there was no heartbeat, blood was drawn and organs were collected. […] After blood collection, the needle was slowly withdrawn from the blood vessel and the blood was placed into a 2 mL eppendorf tube and centrifuged at 10,000×g for 10 min. The upper serum layer was separated into eppendorf tubes and stored in a −20° C. freezer for future analysis.

[3] = system: obesity rats induced by high-fat feed; assay: Body fat mass and body fat rate (perirenal and epididymal fat) of high-fat diet rats
Method: as §1, §2, §3
At the time of sacrifice, fatty tissues surrounding the kidneys and the epididymis (perirenal and epididymal fatty tissues) of the experimental animals were removed, and the their weights were measured and recorded. The body fat rate was calculated as follows: Body fat efficiency=(fat weight/body weight)×100%

[4] = system: obesity rats induced by high-fat feed; assay: Serum biochemical analysis (TC, TG) of high-fat diet rats
Method: as §2, §3
(5) Sacrificial Blood Sampling: At the 8th week, the rats fasted for 12-14 hours before blood sampling. […] Blood samples were centrifuged with the conditions of 4° C. and 3,000×g for 15 min.
as §4
The test was performed using a biochemical autoanalyzer (Model No.: Beckman-700, purchased from Fullerton, California, USA). The items measured were Total Cholesterol (TC), and Triglyceride (TG).

[5] = system: obesity rats induced by high-fat feed; assay: Liver lipid extraction and determination (TC, TG)
Method: as §2, §3
(§5) 0.1 g of liver tissue or fecal powder was weighed and 1 mL of chloroform:methanol (2:1, v/v volume ratio) was added, and homogenized with a tissue homogenizer and centrifuged to obtain the supernatant. The supernatant was then air-dried to remove the solvent, and the sample was dissolved by adding dimethyl sulfoxide (DMSO), and the extracts were kept at −20° C. The TC concentration was analyzed using a commercially available biochemical reagent (Model No. BXC 0261, Fortress), and the TG concentration was analyzed using a commercially available biochemical reagent (Model No. BXC 0271, Fortress), as per the kit instruction manual.

[6] = system: obesity rats induced by high-fat feed; assay: Fecal lipid extraction and determination (TC, TG)
Method: as §2, §3, §5

[7] = system: gut microbiota of high-fat diet rats; assay: Gut microbiota fecal analysis (full-length 16S sequencing) of high-fat diet rats
Method: About 0.3 g of fresh feces was collected into 1.5 mL of eppendorf before fasting for sacrifice, sealed with parafilm, stored at −80° C. for analysis, and sent to BioTools (New Taipei, Taiwan) for analysis.
Total genomic DNA (QIAamp PowerFecal DNA, Qiagen) was extracted from the samples. The DNA concentration was determined by Qubit 4.0 fluorometer (Thermo Scientific) and adjusted to 1 ng/μL. The full-length 16S gene (V1-V9 region) was amplified by 16S gene-specific primers with barcodes (Forward primer 1): 5′ Phos/GCATC-16-base barcode-Sequence ID Number 11, Reverse primer 1: 5′Phos/GCATC-16-base barcode—Sequence ID Number 12). PCR reactions were performed using KAPA HiFi HotStart ReadyMix (Roche): at 95° C. for 3 min. and 20-27 cycles (Sample Dependency): at 95° C. for 30 sec., at 57° C. for 30 sec., at 72° C. for 60 sec; at 72° C. for 5 min., and finally stored at 4° C. for future use. PCR products were monitored on 1% agarose gels. Samples of approximately 1500 bp bright bands were selected and purified by using AMPure PB Beads for SMRTbell library preparation.
SMRTbell libraries were prepared based on full-length 16S gene amplifications with barcoded primers used in the Multiplex SMRTbell Library Preparation and Sequencing Program (Pacbio). Sequencing was performed in circular consensus sequencing (CCS) mode on a PacBio Sequel Ile instrument, generating HiFi read with a Phred Scale=30. The DNA to be tested will be sequenced iteratively. By comparing the results of the reverse sequencing, sequencing errors will be corrected, ultimately achieving a high accuracy of >99.9% (QV30).
Information Analysis (Sequential data processing/denoising and species annotation) The sample data from the downstream data were sorted out according to the Barcode sequence and PCR amplification primer sequences. After the removal of the barcodes and primer sequences, the data were imported into QIIME2 (v2019.7.0; https://qiime2.org/) and all the sequences of the samples were saved into one corresponding object Artifacts. QIIME2 cutadapt was used to remove the amplicon variant primers (forward primer 2: Sequence ID Number 13; reverse primer 2: Sequence ID Number 14), and the sequence with the primers removed will be used as QIIME2 DADA2. Input Reads.
The denoising analysis began with the filtering of sequences, setting each sequence to be cropped to a specified length (forward reads: 280 bp; reverse reads: 220 bp) and setting the MaxEE (forward reads: 2; reverse reads: 2) parameter as the maximum number of expected error bases allowed for the sequence. This was followed by denoising, the core algorithm of DADA2 utilizing the information of sequence abundance, quality score, and relationships between sequences to correct the […] of sequencing errors and to infer the real sequences. Splicing was performed after denoising each end of the sequence (minimum overlap length 20 bp; overlap region was not allowed to be mismatched). Finally, the spliced sequences are subjected to chimera removal by comparing the sequences with higher abundance in the sample. If a sequence with low abundance is similar to several sequences, it can be recognized as a chimera and removed from the sample. Sequences after denoising analysis were used as representative sequences of Amplicon Sequence Variants (ASVs) and can be obtained from the ASV table for subsequent species annotation. The QIIME2 feature-classifier (v2019.7.0; https://qiime2.org/) was used to select machine learning-based classification methods and to train naïve bayes classifiers for different databases and specific variability regions. The taxonomic annotation of ASVs represented by this classifier yields taxonomic information and the composition of the microbial phyla of each sample at each classification level including kingdom, phylum, class, order, family, genus, and species.
Welch's t-test was analyzed by STAMP (v2.1.3), and the intergroup species differences were plotted as bar charts. […]

[8] = Msol: Monascinol 0.31 mg/kg BW/day (adult 3 mg/day), tube-fed 8 weeks, high-fat diet SD rats, mean±SD
[9] = p<0.05, 8 weeks, RL 0.5 g/day, RH 2 g/day, Msol 3 mg/day (adult equivalent)
[10] = 8 weeks, RL 0.5 g/day, RH 2 g/day, Msol 3 mg/day (adult equivalent)
[11] = vs HF group, 8 weeks, RL 0.5 g/day, RH 2 g/day, Msol 3 mg/day (adult equivalent)
[12] = FIGS. 9A-9D, high-fat diet rats, red yeast rice 0.5 and 2 g/day, Monascinol 3 mg/day
[13] = order level, FIG. 7C, high-fat diet rats, red yeast rice 0.5 and 2 g/day, Monascinol 3 mg/day
[14] = phylum level, FIG. 7A, high-fat diet rats, red yeast rice 0.5 and 2 g/day, Monascinol 3 mg/day

C/C=C/C1=CC2=C(CO1)C(=O)C1(C)OC(=O)C(C(O)CCCCC)C1C2 (stereo not drawn) [Msol, Monascinol]
Weight 8 week [1, 8]: 512.1 ± 31.1^a g | Weight gain [1, 8]: 220.8 ± 38.8^a g | Weight before Sacrifice ([1]; after fasting, Msol: Monascinol 0.31 mg/kg BW/day (adult 3 mg/day), tube-fed 8 weeks, high-fat diet SD rats, mean±SD): 488.5 ± 31.7^a g | weight gain compared with HF group [1, 9]: significantly reduced | liver-to-body-weight ratio compared with HF group [2, 10]: reduction | Liver Weight/Body Weight [2, 8]: 3.28 ± 0.37^b % | Liver weight [2, 8]: 16.84 2.31^b g | liver weight compared with HF group [2, 9]: significant decrease | Fat/body weight [3, 8]: 3.35 ± 0.55^b % | body fat mass compared with HF group [3, 9]: significantly reduced | body fat percentage compared with HF group [3, 9]: significantly reduced | Fat weight ([3]; perirenal and epididymal fat, Msol: Monascinol 0.31 mg/kg BW/day (adult 3 mg/day), tube-fed 8 weeks, high-fat diet SD rats, mean±SD): 17.95 3.55^b g | TC in serum [4, 8]: 65.0 ± 10.4^b mg/dL | TG in serum [4, 8]: 61.7 ± 10.7^a mg/dL | serum TC concentration compared with HF group [4, 9]: reduced | serum TG concentration compared with HF group ([4]; p<0.05, 8 weeks, red yeast rice at all doses (0.5 and 2 g/day), Msol 3 mg/day (adult equivalent)): significant reduction effect | hepatic TC levels compared with HF group [5, 10]: effective in reducing | Liver TC [5, 8]: 5.05 ± 0.54^a mg/g | Liver TG [5, 8]: 14.40 ± 1.57^a mg/g | liver TG content compared with HF group [5, 9]: significantly different from the HF group | Feces TC [6, 8]: 46.22 ± 4.72^c mg/g | Feces TG [6, 8]: 61.27 4.80^cd mg/g | accumulation of TG in the body (from fecal TG content) [6, 11]: effective in reducing | excretion of TC (feces) [6, 11]: significantly promoted | F/B ratio (abundance ratio of Firmicutes to Bacteroidetes) ([7]; FIG. 7A, high-fat diet rats, red yeast rice 0.5 and 2 g/day, Monascinol 3 mg/day): decrease | content of B. thetaiotaomicron in the intestines [7, 12]: most significant | intestinal abundance of Dubosiella newyorkensis [7, 12]: increase | bacterial abundance of Bifidobacteriales in the intestine [7, 13]: increased | intestinal abundance of Verrucomicrobiales [7, 13]: increased | intestinal abundance of Eubacteriales ([7]; order level, FIG. 8, HF group 50.14%, NOR 35.07%, MSol: Monascinol adult 3 mg/day, 8 weeks, high-fat diet rats): 43.21% | abundance of Bacteroidetes [7, 14]: increase | abundance of Firmicutes [7, 14]: decrease | abundance of A. muciniphila ([7]; species level, FIG. 7F, high-fat diet-induced obesity rats, red yeast rice 0.5 and 2 g/day, Monascinol 3 mg/day): increased
